Consider 24 compounds from patent US3992539A, “S-triazolo-[3,4-a]isoquinolines in treating inflammatory disorders” (Mallinckrodt, Inc., priority 1973, dated 1976).

Each structure is given as a SMILES string. Counter-ions that a name gives are not always drawn. Like-named read-outs stand apart in the source and are kept apart here.

Test [1] concerns carrageenin-induced pedal edema. Kind of test: inhibition of carrageenin-induced pedal edema in rats. Format: in vivo, rats (male Wistar). The note with it: Rattus norvegicus. As for the experimental part: The anti-inflammatory activity of a number of representative compounds of the invention was determined by measuring inhibition of carrageenin-induced pedal edema in rats. The procedure used was a modification of the method of Winter et al., Proc. Soc. Exptl. […] The device used for measurement of the paw volume was an adaptation of the water displacement procedure described by Adamkiewicz et al., Can. J. Biochem. Physiol. […] The compounds were studied for their effectiveness in inhibiting the edema caused by the intraplantar injection of 0.05 ml. of a sterile 1.0% solution of carrageenin. […] The compounds were administered orally one hour prior to the injection of the phlogistic substance (carrageenin) into the left hind paw of the rats. At peak swelling time (3 hours), the volume of edema was calculated by differential paw volumes.
In general terms: The carrageenan paw model is a standard test of acute inflammation.

For the next test, the system named is gastric secretion. Kind of test: anti-secretory activity, pylorus-ligated fasting rats (Shay rat procedure). It is filed as in vivo. The note with it: for Anti-Secretory Activity (% Reduction of gastric secretion, ml./100 gm.): 50 mg./kg., fasting rats, 4 hours after pylorus ligation, subcutaneous (footnote), intraperitoneal; for anti-secretory activity rather than ulcerogenic properties (in words): rat, in vivo. How it is done: The anti-secretory properties of certain compounds of the invention was determined using the following procedure. The stomachs of fasting rats were ligated at the pylorus (Shay rat procedure) immediately followed by an intraperitoneal injection of 50 mg./kg. of each compound tested. Four hours later the animals were sacrificed, the stomachs removed and the total volume of fluid was measured.
*% Reduction of gastric secretion (ml./100 gm.) after subcutaneous
administration to fasting rats at 50 mg./kg.

The conditions of test [2]: U.S. Pat. No. 3,354,164; cited from earlier work.
[3] abbreviates: oral, one hour before carrageenin, edema at 3 hours, dose which reduced edema formation by 25% or more in 50% of the animals, read-out: Anti-Inflammatory Activity (ED50).
Setting [4] is: po, 3 h, read-out: Anti-Inflammatory Activity (ED50), known antiinflammatory agents.
The mark [5] stands for this setting: po, 3 h, typical ED50 values from the same test, read-out: Anti-Inflammatory Activity (ED50), known antiinflammatory agents.

What is called ED50 is the dose that gives a 50% effect, or the effect in half of the subjects. On to `CCN(CC)CCNc1nnc2c3ccccc3ccn12` [3-(N,N-diethylaminoethylamino)-s-triazolo-[3,4-a]-isoquinoline], for which the median effective dose (ED50) in test [1] (setting [3]) came out at 172 mg/kg. For the same compound, in the test with gastric secretion, the “Anti-Secretory Activity (% Reduction of gastric secretion, ml./100 gm.)” value is recorded as 49% and the “anti-secretory activity rather than ulcerogenic properties (in words)” value is “exhibit anti-secretory activity rather than the ulcerogenic properties”.

For `CN1CCN(c2nnc3c4ccccc4c(Cl)cn23)CC1` [3-(N-methylpiperazino)-6-chloro-s-triazolo-[3,4-a]-isoquinoline], the ED50 in test [1] (setting [3]) was above 60 mg/kg.

As to `CC(=O)OCc1nnc2c3ccccc3ccn12` [3-Acetoxymethyl-s-triazolo-[3,4-a]-isoquinoline], the median effective dose (ED50) in test [1] (setting [3]) is around 100 mg/kg.

On to `COc1ccc2c(ccn3c(C)nnc23)c1` [3-Methyl-8-methoxy-s-triazolo-[3,4-a]-isoquinoline], for which the median effective dose (ED50) in test [1] (setting [3]) was determined as 135 mg/kg.

Consider `COc1ccc2c(c1)-c1nnc(C(F)(F)F)n1CC2.Cl` [3-Trifluoromethyl-5,6-dihydro-9-methoxy-s-triazolo-[3,4-a]-isoquinoline Hydrochloride], for which the median effective dose (ED50) in test [1] (setting [3]) is 38 mg/kg.

With `COC(=O)c1cn2c(C(F)(F)F)nnc2c2ccccc12` [3-Trifluoromethyl-6-carbomethoxy-s-triazolo-[3,4-a]-isoquinoline], in the test on gastric secretion, the “Anti-Secretory Activity (% Reduction of gastric secretion, ml./100 gm.)” value came out at 6.4% and the “anti-secretory activity rather than ulcerogenic properties (in words)” value is recorded as “exhibit anti-secretory activity rather than the ulcerogenic properties”.

On to `O=C(O)c1cn2c(C(F)(F)F)nnc2c2ccccc12` [3-Trifluoromethyl-6-carboxy-s-triazolo-[3,4-a]-isoquinoline,Potassium Salt], for which the median effective dose (ED50) in test [1] (setting [3]) is above 160 mg/kg.

Consider `FC(F)(F)c1nnc2c3cc4c(cc3ccn12)OCO4` [3-Trifluoromethyl-8,9-methylenedioxy-s-triazolo-[3,4-a]-isoquinoline], for which the 50% effective dose (ED50) in test [1] (setting [3]) was 80 mg/kg.

Take `FC(F)(F)c1nnc2c3cc(Cl)ccc3ccn12` [3-Trifluoromethyl-9-chloro-s-triazolo-[3,4-a]-isoquinoline]: the median effective dose (ED50) in test [1] (setting [3]) was around 160 mg/kg.

As to `COc1ccc2ccn3c(C(F)(F)F)nnc3c2c1` [3-Trifluoromethyl-9-methoxy-s-triazolo-[3,4-a]-isoquinoline], the ED50 in test [1] (setting [3]) was 39 mg/kg.

Turning to `Cc1ccc2ccn3c(C(F)(F)F)nnc3c2c1` [3-Trifluoromethyl-9-methyl-s-triazolo-[3,4-a]-isoquinoline], in test [1] (setting [3]), the median effective dose (ED50) was around 160 mg/kg. For the same compound, in the test on gastric secretion, the “Anti-Secretory Activity (% Reduction of gastric secretion, ml./100 gm.)” value was 22% and the “anti-secretory activity rather than ulcerogenic properties (in words)” value is listed as “exhibit anti-secretory activity rather than the ulcerogenic properties”.

As for `CC(C)Cc1nnc2c3ccccc3ccn12` [3-isobutyl-s-triazolo-[3,4-a]-isoquinoline], in test [1] (setting [3]), the ED50 is 130 mg/kg. Moreover, in the test with gastric secretion, the “Anti-Secretory Activity (% Reduction of gastric secretion, ml./100 gm.)” value is on record as 16% and the “anti-secretory activity rather than ulcerogenic properties (in words)” value is given as “exhibit anti-secretory activity rather than the ulcerogenic properties”.

`Cc1nnc2c3cccc(Cl)c3ccn12.Cl` [3-methyl-7-chloro-s-triazolo-[3,4-a]-isoquinoline hydrochloride]: the ED50 in test [1] (setting [3]) was above 30 mg/kg.

Take `Br.Cc1nnc2c3cccc(C#N)c3ccn12` [3-methyl-7-cyano-s-triazolo-[3,4-a]-isoquinoline hydrobromide]: the ED50 in test [1] (setting [3]) was below 100 mg/kg.

For the compound `COc1ccc2ccn3c(C)nnc3c2c1` [3-methyl-9-methoxy-s-triazolo-[3,4-a]-isoquinoline], the median effective dose (ED50) in test [1] (setting [3]) amounted to 115 mg/kg.

Turning to `Cl.c1c2c(cc3c1OCO3)-c1nncn1CC2` [5,6-Dihydro-8,9-methylenedioxy-s-triazolo-[3,4-a]-isoquinoline, Hydrochloride], in test [1] (setting [3]), the ED50 was around 160 mg/kg.

For the compound `Cl.Cl.Clc1cccc2c1ccn1c(CN3CCOCC3)nnc21` [7-Chloro-3-morpholinomethyl-s-triazolo-[3,4-a]-isoquinoline (Dihydrochloride)], in test [1] (setting [3]), the 50% effective dose (ED50) is around 160 mg/kg.

Consider `c1cn2cnnc2c2cc3c(cc12)OCO3` [8,9-Methylenedioxy-s-triazolo-[3,4-a]-isoquinoline], for which, in test [1] (setting [3]), the ED50 was around 24 mg/kg. Further, in the test on gastric secretion, the “Anti-Secretory Activity (% Reduction of gastric secretion, ml./100 gm.)” value is recorded as 29.5% and the “anti-secretory activity rather than ulcerogenic properties (in words)” value was “exhibit anti-secretory activity rather than the ulcerogenic properties”.

With `CC(=O)Oc1ccccc1C(=O)O` [Aspirin, reference compound], the median effective dose (ED50) in test [1] (setting [4]) was determined as 224 mg/kg.

On to `C[C@@H]1C[C@H]2[C@@H]3CCC4=CC(=O)C=C[C@]4(C)[C@@]3(F)[C@@H](O)C[C@]2(C)[C@@]1(O)C(=O)CO` [Dexamethasone, reference compound], for which the median effective dose (ED50) in test [1] (setting [4]) was determined as 0.18 mg/kg.

`CC(=O)OCC(=O)[C@@]1(O)CC[C@H]2[C@@H]3CCC4=CC(=O)CC[C@]4(C)[C@H]3[C@@H](O)C[C@@]21C` [Hydrocortisone Acetate, reference compound]: in test [1] (setting [5]), the median effective dose (ED50) was found to be 26 mg/kg.

For the compound `COc1ccc2c(c1)c(CC(=O)O)c(C)n2C(=O)c1ccc(Cl)cc1` [Indomethacin, reference compound], in test [1] (setting [4]), the ED50 stood at 2.4 mg/kg.

In the case of `CCCCC1C(=O)N(c2ccccc2)N(c2ccccc2)C1=O` [Phenylbutazone, reference compound], the ED50 in test [1] (setting [5]) is 30 mg/kg.

Turning to `c1ccc2c(c1)ccn1cnnc21` [s-triazolo-[3,4-a]-isoquinoline], in test [2], the “coronary vasodilator activity (in words)” value was “coronary vasodilators”.
